According to patent publication US8734853B2, “HDL particles for delivery of nucleic acids” (University of North Texas Health Science Center at Fort …, priority 2008, dated 2014):

Experiments:
HCT116 = HCT116 model, compared to controls
[1] = tested on: SKOV3ip1 ovarian cancer cells; assay: Annexin-V PE/7AAD flow cytometry apoptosis assay; type: cell-based; conditions: docetaxel 4 nM, 48 hours after docetaxel treatment
Method: All in vitro experiments were conducted using 4.0 nM concentration of docetaxel in SKOV3ip1 ovarian cancer cells. These cells were treated with docetaxel after STAT3 gene was silenced using siRNA (as described above) for 48 hours.
Additionally, to determine the effects of in vitro STAT3 targeting on apoptosis, STAT3 gene was silenced in SKOV3ip1 ovarian cancer cells using an siRNA targeted against STAT3 and followed by treatment with docetaxel (4 nM). 48 hours after docetaxel treatment, the extent of cell death secondary to apoptosis was analyzed after Annexin-V PE/7AAD staining with flow cytometry.

[2] = tested on: SKOV3ip1 ovarian cancer cells; assay: MTT assay, docetaxel after STAT3 siRNA transfection; type: cell-based; conditions: SKOV3ip1 cells transfected with STAT3 siRNA, docetaxel in escalating doses, compared to docetaxel treatment
Method: Small interfering RNA (siRNA). Specific siRNAs targeted against Stat3—7 (target sequence 5′-[…]-3′; SEQ ID NO:1), FAK (target Sequence 5′-[…]-3′; SEQ ID NO:2) and control siRNA targeted against (target sequence:5′-[…]-3′; SEQ ID NO:3) were purchased from Sigma-Aldrich Corporation, (Woodland, Tex.). These were incorporated into r-HDL nanoparticles, as previously described (Mooberry et al., 2009). 5 ug of r-HDL incorporated siRNA was injected intraperitoneally twice weekly. For in vitro studies, mRNA-specific or nonspecific (control) siRNA was incorporated into Qiagen RNAiFect transfection agent (1 ug of siRNA to 3 uL of RNAiFect). Only 70% to 80% confluent SKOV3ip1 cells were utilized. Cells were first transfected with STAT3 siRNA. Twenty-four hours after transfection, media was changed to standard siRNA-free media and cells were treated with docetaxel (see below for details).
MTT assay. SKOV3 cell (1.5×105) cells were plated in each well, using 6 well plates. Cells were then transfected with control or STAT3 siRNA overnight. […] Forty-eight hours after docetaxel treatment, the number of viable cells was determined by adding 50 μL of 0.15% 3-(4,5-dimethylthiazol-2-yl)-2,5-diphenyl tetrazolium bromide (MTT; Sigma) to each well. […] Viable cells were quantified by measuring the absorbance at 570 nm using a uQuant plate reader (Bio-Tek, Winooski, Vt.). […]

Ovarian Tumor Cells = assay: Gene expression profile after STAT3 knockdown (Illumina microarray / quantitative RT-PCR); type: cell-based
Method: Effect of STAT3 Silencing on Gene Expression profile of Ovarian Tumor Cells. STAT3 knockdown using siRNA targeted against STAT3, microarray analysis using Illumina platform was performed There were 460 genes that were identified to have differential expression levels between the control and STAT3 targeted group. Data was then analyzed using ingenuity-pathway assistance and 32 genes that were involved in cell survival and apoptosis were chosen (Table 1).

SKOV3ip1 [3] = assay: TUNEL staining of tumor tissues from the SKOV3ip1 model; type: in vivo, female athymic nude mice; conditions: SKOV3ip1 model tumors, compared to control group
Method: TUNEL Staining. Assessment of apoptosis, frozen sections stained by terminal deoxynucleotidyl transferase-mediated deoxyuridine triphosphate nick-end labeling (TUNEL; green; Promega, Madison, Wis.), was performed as described previously (Shahzad et al., 2009). The samples were counterstained with Hoechst 1:10,000 (Thaker et al., 2005). An apoptotic body was represented by green fluorescence. To quantify apoptotic cells, the number of TUNEL positive cells was calculated in 10 random fields at the original magnification 200× from five separate slides (per group) and averaged.
STAT3 is known to increase cell survival and inhibit apoptosis (Shen et al., 2001; Catlett-Falcone et al., 1999; Zushi et al., 1998; Masude et al., 2002). To assess whether STAT3 knockdown would enhance the efficacy of docetaxel treatment by enhancing its ability to produce apoptosis., fluorescents labeled TUNEL staining was performed on fresh frozen tumor tissues from the SKOV3ip1 ovarian cancer treatment model.

[4] = tested on: tumor associated angiogenesis; assay: CD31 staining, microvessel density (MVD) of tumor samples; conditions: compared with control siRNA/rHDL treatment
Method: Paraffin sections for CD31 (1:800 dilution, Pharmingen), were stained at 4° C. […] To quantify MVD, five random 0.159 mm2 fields at 100× magnification for each tumor were examined, and microvessels within those fields were counted (Thaker et al., 2005).
In order to ascertain the effects of STAT3 silencing on tumor associated angiogenesis, CD 31 staining on fresh frozen tumor samples from all four treatment groups (FIG. 7) was determined along with microvessel density (MVD).

HeyA8 = assay: Orthotopic mouse model of ovarian carcinoma (HeyA8); type: in vivo, female athymic nude mice
Method: Orthotopic mouse model. The 10- to 12-week-old female athymic nude mice were obtained from the US National Cancer Institute. All experiments were approved by the Institutional Animal Care and Use Committee of the M.D. Anderson Cancer Center. […] Tumor cells for appropriate ovarian cancer mouse models (HeyA8, 2.5×105; SKOV3ip1 and […], 1.0×106) were injected intraperitoneally into mice on day 0. Mice randomized into appropriate groups on day 7 when tumors had been established and were palpable. After 3-5 weeks of treatment (depending on the model), mice were necropsied and tumors were harvested. Small interfering RNA (siRNA). Specific siRNAs targeted against Stat3-7 (target sequence [NT] ID NO:1), FAK (target Sequence [NT] ID NO:2) and control siRNA targeted against (target sequence:[NT] ID NO:3) were purchased from Sigma-Aldrich Corporation, (Woodland, Tex.). These were incorporated into r-HDL nanoparticles, as previously described (Mooberry et al., 2009). 5 ug of r-HDL incorporated siRNA was injected intraperitoneally twice weekly. For in vitro studies, mRNA-specific or nonspecific (control) siRNA was incorporated into Qiagen RNAiFect transfection agent (1 ug of siRNA to 3 uL of RNAiFect). […] Cells were first transfected with STAT3 siRNA. Twenty-four hours after transfection, media was changed to standard siRNA-free media and cells were treated with docetaxel (see below for details). Reagents. Docetaxel was purchased from Sanofi-Aventis (Bridgewater, N.J.). […] These cells were treated with docetaxel after STAT3 gene was silenced using siRNA (as described above) for 48 hours. In In vivo experiments, appropriate groups received treatment with docetaxel starting on day 7, once a week, intraperitoneally at: 50 ug/mouse (HeyA8 and HeyA8-MDR) and 30 ug/mouse (SKOV3). […] Statistics. Continuous variables were compared with the use of the Student t test (between 2 groups) or analysis of variance (for all groups) if normally distributed, and with the use of the Mann-Whitney rank sum test or Kruskal Wallis test (for all groups) if nonparametric. […]

SKOV3ip1 [5] = assay: Orthotopic ovarian cancer mouse model (SKOV3ip1); type: in vivo, female athymic nude mice; conditions: compared to control group
Method: (§1) Orthotopic mouse model. The 10- to 12-week-old female athymic nude mice were obtained from the US National Cancer Institute. All experiments were approved by the Institutional Animal Care and Use Committee of the M.D. Anderson Cancer Center. […] Tumor cells for appropriate ovarian cancer mouse models (HeyA8, 2.5×105; SKOV3ip1 and […], 1.0×106) were injected intraperitoneally into mice on day 0. Mice randomized into appropriate groups on day 7 when tumors had been established and were palpable. After 3-5 weeks of treatment (depending on the model), mice were necropsied and tumors were harvested. Small interfering RNA (siRNA). Specific siRNAs targeted against Stat3-7 (target sequence [NT] ID NO:1), FAK (target Sequence [NT] ID NO:2) and control siRNA targeted against (target sequence:[NT] ID NO:3) were purchased from Sigma-Aldrich Corporation, (Woodland, Tex.). These were incorporated into r-HDL nanoparticles, as previously described (Mooberry et al., 2009). 5 ug of r-HDL incorporated siRNA was injected intraperitoneally twice weekly. For in vitro studies, mRNA-specific or nonspecific (control) siRNA was incorporated into Qiagen RNAiFect transfection agent (1 ug of siRNA to 3 uL of RNAiFect). […] Cells were first transfected with STAT3 siRNA. Twenty-four hours after transfection, media was changed to standard siRNA-free media and cells were treated with docetaxel (see below for details). […]

HeyA8MDR = assay: Multi-drug resistant model of ovarian carcinoma (HeyA8MDR); type: in vivo, female athymic nude mice; conditions: compared to control siRNA/rHDL
Method: as §1

SKOV3ip1 [6] = assay: Ki-67 staining (cell proliferation index) of tumors from SKOV3ip1 model; type: in vivo, female athymic nude mice; conditions: compared with control group
Excerpt: Effect of STAT3 targeting on tumor microenvironment. […] The combination of STAT3 siRNA/rHDL and docetaxel reduced tumor cell proliferation by 48% (P<0.01) compared with control group (FIG. 7).

[7] = STAT3 targeting study, compared to the control group

O=C1[O][Pt]2([NH][C@@H]3CCCC[C@H]3[NH]2)[O]C1=O [oxaliplatin]
reduction in tumor growth (HCT116): 55%

STAT3 siRNA: siRNA against Stat3 (SEQ ID NO:1), transfected in vitro with Qiagen RNAiFect transfection agent (GCCUCUCUGCAGAAUUCAA; listed as RNA, chemistry not given here)
increase in apoptosis compared to control [1]: 3 fold | effect of STAT3 silencing on IC 50 values of docetaxel [2]: lowered the IC 50 values of docetaxel significantly | Fold Change (Ovarian Tumor Cells; gene ALOX5, Stat3 silencing vs control): 1.43 fold | Fold Change (Ovarian Tumor Cells; gene ATF6, Stat3 silencing vs control): 0.44 fold | Fold Change (Ovarian Tumor Cells; gene BAX, Stat3 silencing vs control): 1.49 fold | Fold Change (Ovarian Tumor Cells; gene BCL6, Stat3 silencing vs control): 0.72 fold | Fold Change (Ovarian Tumor Cells; gene BEX2, Stat3 silencing vs control): 1.46 fold | Fold Change (Ovarian Tumor Cells; gene CAV1, Stat3 silencing vs control): 0.75 fold | Fold Change (Ovarian Tumor Cells; gene CD24, Stat3 silencing vs control): 0.73 fold | Fold Change (Ovarian Tumor Cells; gene CDCP1, Stat3 silencing vs control): 0.73 fold | Fold Change (Ovarian Tumor Cells; gene CTGF, Stat3 silencing vs control): 0.62 fold | Fold Change (Ovarian Tumor Cells; gene CYR61, Stat3 silencing vs control): 0.68 fold | Fold Change (Ovarian Tumor Cells; gene DKK1, Stat3 silencing vs control): 0.72 fold | Fold Change (Ovarian Tumor Cells; gene DUSP1, Stat3 silencing vs control): 0.74 fold | Fold Change (Ovarian Tumor Cells; gene ETS2, Stat3 silencing vs control): 0.56 fold | Fold Change (Ovarian Tumor Cells; gene FGF2, Stat3 silencing vs control): 0.68 fold | Fold Change (Ovarian Tumor Cells; gene FOS, Stat3 silencing vs control): 0.72 fold | Fold Change (Ovarian Tumor Cells; gene HM OX1, Stat3 silencing vs control): 1.79 fold | Fold Change (Ovarian Tumor Cells; gene IGFBP3, Stat3 silencing vs control): 0.45 fold | Fold Change (Ovarian Tumor Cells; gene IL-1B, Stat3 silencing vs control): 0.55 fold | Fold Change (Ovarian Tumor Cells; gene IL-6, Stat3 silencing vs control): 0.61 fold | Fold Change (Ovarian Tumor Cells; gene KITLG, Stat3 silencing vs control): 0.66 fold | Fold Change (Ovarian Tumor Cells; gene NFKBIZ, Stat3 silencing vs control): 0.65 fold | Fold Change (Ovarian Tumor Cells; gene NQO1, Stat3 silencing vs control): 0.55 fold | Fold Change (Ovarian Tumor Cells; gene NRP1, Stat3 silencing vs control): 0.67 fold | Fold Change (Ovarian Tumor Cells; gene PLAUR, Stat3 silencing vs control): 0.72 fold | Fold Change (Ovarian Tumor Cells; gene PMAIP1, Stat3 silencing vs control): 0.69 fold | Fold Change (Ovarian Tumor Cells; gene PMEPA1, Stat3 silencing vs control): 0.71 fold | Fold Change (Ovarian Tumor Cells; gene PRKRA, Stat3 silencing vs control): 0.68 fold | Fold Change (Ovarian Tumor Cells; gene RASA1, Stat3 silencing vs control): 0.68 fold | Fold Change (Ovarian Tumor Cells; gene RTN1, Stat3 silencing vs control): 1.37 fold | Fold Change (Ovarian Tumor Cells; gene SFRP1, Stat3 silencing vs control): 0.55 fold | Fold Change (Ovarian Tumor Cells; gene SGK1, Stat3 silencing vs control): 0.68 fold | Fold Change (Ovarian Tumor Cells; gene SPARC, Stat3 silencing vs control): 0.7 fold | Fold Change (Ovarian Tumor Cells; gene SPP1, Stat3 silencing vs control): 0.77 fold | Fold Change (Ovarian Tumor Cells; gene STAT3, Stat3 silencing vs control): 0.23 fold | Fold Change (Ovarian Tumor Cells; gene TCF3, Stat3 silencing vs control): 0.71 fold | Fold Change (Ovarian Tumor Cells; gene TNFRSF11B, Stat3 silencing vs control): 0.61 fold | Fold Change (Ovarian Tumor Cells; gene TNFSF10, Stat3 silencing vs control): 0.7 fold | Fold Change (Ovarian Tumor Cells; gene XBP1, Stat3 silencing vs control): 0.74 fold

CC(=O)O[C@@]12CO[C@@H]1C[C@H](O)[C@@]1(C)C(=O)[C@H](O)C3=C(C)[C@@H](OC(=O)[C@H](O)[C@@H](NC(=O)OC(C)(C)C)c4ccccc4)C[C@@](O)([C@@H](OC(=O)c4ccccc4)[C@H]21)C3(C)C [docetaxel]
increase in tumor cell apoptosis (TUNEL) (SKOV3ip1 [3]): 12 fold | reduction in MVD (tumor associated vessel counts, CD31) [4]: 66% | reduction in tumor growth (HeyA8; FAK targeting study): 74% | reduction in tumor growth (HeyA8; [7]): 62% | reduction in tumor metastasis (HeyA8; [7]): 77% | reduction in tumor growth (SKOV3ip1 [5]): 78% | increase in apoptosis compared to control [1]: 5.2 fold | reduction in tumor growth (HeyA8MDR): 17% | reduction in tumor cell proliferation (Ki-67) (SKOV3ip1 [6]): 30%
